# Paper PMC3745399, “An NO Donor Approach to Neuroprotective and Procognitive Estrogen Therapy Overcomes Loss of NO Synthase Function and Potentially Thrombotic Risk” (PLoS ONE, 2013)
# Read-outs that look alike come from different tables or passages of the source.
# Experiments:
# [1] = NO levels (NOx) in hippocampus and plasma by chemiluminescence; assay type: in vivo, mouse; details: 2 mg/kg i.p., 1 h; for elevation of NOx in hippocampus / elevation of NOx in plasma: WT mice
# Experimental: Brain and plasma NO levels were assessed by measuring metabolic oxidation products, NO2 ^−and NO3 ^− (NOx), using chemiluminescence detection.
# Figure 5 Effects of SERM and NO-SERMon NO levels in plasma and brain of WT and eNOS (−/−) mice. Levels of NO were assessed by measuring breakdown products 1 h after i.p. injection of SERMs (2 mg/kg) using chemiluminescence detection.
# All experiments were performed on 6–8 month male C57B1/6 mice (Charles River Laboratory) or eNOS(−/−) animals. Animals were injected (i.p.) at various time points before sacrifice at the doses specified. After euthanasia via CO2, plasma was collected, and cortices and hippocampi were collected after PBS perfusion and stored at −80°C. Tissue samples were weighed and extracted with methanol. Plasma samples were extracted with cold acetonitrile. Quantitative analysis of drug concentrations in plasma and brain used internal standards spiked into plasma and brain homogenates before liquid extraction with acetonitrile or methanol, and separation and measurement was performed with LC-MS/MS tandem mass spectrometry. The supernatant (deproteinized) was analyzed by chemiluminescence with SIEVERS 280i nitric oxide analyzer.
# [2] = Anticoagulation: PT and aPTT after i.p. dosing; assay type: in vivo, mouse; details: for PT / aPTT / anticoagulant effect (PT, aPTT) at 3 h: C57Bl/6 mice, 2 mg/kg i.p.; for PT / aPTT: 1 h; for anticoagulation (PT and aPTT) with NOS blockade: L-NAME 50 mg/kg 30 min prior to collection, SERM 2 mg/kg 1 h prior
# Experimental: Figure 6 Effect of SERMs and NO-SERM on […] clotting cascades. Blood was collected by cardiac puncture and PTT and aPTT were determined 1 or 3 h after i.p. drug administration (2 mg/kg).
# SERMs were injected (i.p.) into 6–8 month old male C57Bl/6 mice 1 h before blood collection, and L-NAME was injected (i.p.) 30 min before blood collection. The mouse was sedated by exposing it to CO2 until unconscious and blood was collected in 4.5 mL BD Vacutainer Glass Evacuated Blood Collection Tubes (with 0.105 M buffered sodium citrate) by cardiac puncture. The blood samples were centrifuged at 300 g for 30 min to separate the plasma from the blood, and then 200 uL of plasma was taken from each sample and the PT and aPTT were measured using an ACL 7000 Coagulation Analyzer. The analyzer injects […] of PT-fibrinogen (lyophilized rabbit brain calcium thromboplastin with stabilizers, polybrene, buffer and preservatives) to 75 µL of plasma sample to measure the PT, and 75 µL of synthAFAX (0.025 M)+100 µL of CaCl2 (0.02 M) were added to 75 µL of plasma to measure aPTT. The analysis was at 37°C using a photo sensor at λ = 671 nm.
# isolated rings of aortae = assay: Aortic ring relaxation; set-up: species or system rat
# Experimental: Isolated rings of aortae from male Sprague-Dawley rats (250–300 g) were prepared for isometric tension measurements and were equilibrated for 1 h at an optimal resting tension of 10 mN. Tissues were contracted submaximally with 0.3 µM phenylepinephrine, and after 10–15 m cumulative concentration-response curves for SERMs (0.01–30 µM) were obtained. Some aortic ring preparations were denuded of the endothelium, or were treated with 100 µM L-NAME, prior to assessment of SERM-induced relaxation responses.
# [3] = tested on: C57Bl/6 mice or eNOS(−/−) mice; assay: Step-through passive avoidance (STPA) memory model; assay type: in vivo, mouse; details: SERM 2 mg/kg; for reversal of scopolamine-induced memory deficit (STPA latency): scopolamine 1 mg/kg i.p., tested 24 h after training; for reversal of scopolamine-induced memory deficit in eNOS KO mice (STPA): scopolamine 1 mg/kg
# Experimental: In this assay, memory is tested 24 h after training and since drugs are only administered during training, any side effects, such as sedation, are highly unlikely to confound the testing results. Furthermore, criteria for training are uniform across all treatment groups. Previously, we have shown NO-donors to reverse cognitive deficits induced by attenuation of cholinergic signaling, [51], [52], [53].
# Amnestic memory deficit was induced by i.p. injection of either scopolamine (1 mg/kg) or L-NAME (50 mg/kg) 30 min prior to training in C57Bl/6 male mice. SERMs (2 mg/kg) were given 20 min prior to training and latency was assessed 24 h after training with animals being removed from the task if latency >300 s. All SERMs, except F-DMA, restored scopolamine-induced deficits in STPA in C57Bl/6 animals.
# All experiments were performed either on 6–8 month old male C57B1/6 mice or eNOS(−/−) animals. Scopolamine (1 mg/kg) or L-NAME (50 mg/kg) were injected (i.p.) 30 min prior to training, while SERMs (2 mg/kg) were injected 20 min prior to training. Mice were placed in the light compartment of the light/dark box, and as soon as they entered the dark compartment, they received an electric shock (0.5 mA, 60 Hz for 2 seconds). This training was repeated until latency to enter the dark side reached 300 s. At 24 h post-training, animals were individually placed in the light compartment and the latency to enter the dark compartment was recorded with a 300 s cutoff. Details of this widely used assay of behavior have been discussed previously for NO-donor compounds [53], [54], [55].
# [4] = tested on: Ishikawa endometrial cancer cell line; assay: ER-mediated transcriptional activity (antiestrogen) in Ishikawa cells; assay type: cell-based; details: read-out: antiestrogen potency IC50, ER-mediated transcriptional activity
# ERβ = ERβ (Homo sapiens, UniProt Q92731); assay: ER binding affinity by competitive E2 displacement (ERβ)
# ERβ, sequence (Q92731 whole entry, species assumed): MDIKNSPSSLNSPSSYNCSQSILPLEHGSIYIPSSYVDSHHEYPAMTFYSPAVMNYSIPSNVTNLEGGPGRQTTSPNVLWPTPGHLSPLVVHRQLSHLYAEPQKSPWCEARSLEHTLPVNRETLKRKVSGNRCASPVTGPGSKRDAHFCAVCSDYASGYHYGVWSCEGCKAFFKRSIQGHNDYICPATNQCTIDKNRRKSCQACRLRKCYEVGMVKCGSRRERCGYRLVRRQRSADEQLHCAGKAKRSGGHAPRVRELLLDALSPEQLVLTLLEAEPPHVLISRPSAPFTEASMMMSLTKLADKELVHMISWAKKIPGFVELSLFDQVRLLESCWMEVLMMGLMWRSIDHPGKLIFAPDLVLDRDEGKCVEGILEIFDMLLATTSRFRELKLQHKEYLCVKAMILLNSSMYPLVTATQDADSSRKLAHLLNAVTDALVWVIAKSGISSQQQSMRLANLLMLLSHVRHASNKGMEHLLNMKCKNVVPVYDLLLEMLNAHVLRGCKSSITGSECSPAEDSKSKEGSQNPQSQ
# Experimental: Raloxifene and DMA are structurally related SERMs acting as antagonists of estrogen action in mammary and endometrial cells. […] ER binding affinity was measured by competitive E2 displacement as previously described.
Compound,elevation of NOx in hippocampus [1],elevation of NOx in plasma [1],"NOx in hippocampus, eNOS(−/−) ([1]; eNOS(−/−) mice)","NOx in plasma, eNOS(−/−) ([1]; eNOS(−/−) mice)",PT [2],aPTT [2],"anticoagulant effect (PT, aPTT) at 3 h [2]",anticoagulation (PT and aPTT) with NOS blockade [2],"EC50 (isolated rings of aortae; endothelium-denuded tissues, read-out: EC50 for relaxation, endothelium-denuded)",efficacy (maximal relaxation) (isolated rings of aortae; intact aortic rings),potency relative to DMA (isolated rings of aortae; intact aortic rings),"EC50 (isolated rings of aortae; intact aortic rings, read-out: EC50 for relaxation)","EC50 (isolated rings of aortae; tissues treated with L-NAME 100 µM, read-out: EC50 for relaxation, L-NAME)","reversal of L-NAME-induced cognitive deficit (STPA latency) ([3]; C57Bl/6 male mice, L-NAME 50 mg/kg i.p.)",reversal of scopolamine-induced memory deficit (STPA latency) ([3]; C57Bl/6 male mice),reversal of scopolamine-induced memory deficit in eNOS KO mice (STPA) [3],IC50 [4],IC50 (ERβ),"EC50 (isolated rings of aortae; intact aortic rings contracted with phenylepinephrine, mean, S.D., read-out: EC50 for relaxation)",efficacy after endothelium removal or NOS inhibition (isolated rings of aortae; physical removal of the endothelium or L-NAME)
"O=[N+]([O-])OCCCC1CCN(CCOc2ccc(Oc3c(-c4ccc(O)cc4)sc4cc(O)ccc34)cc2)CC1 [NO-DMA, 3-(1-(2-(4-(6-hydroxy-2-(4-ydroxyphenyl)benzo[b]thiophen-3-yloxy)phenoxy)ethyl)piperidin-4-yl)propyl nitrate]",greater than twofold elevation,greater than twofold elevation,"increase NOx significantly, relative to DMA","increase NOx significantly, relative to DMA",significantly increased PT,significantly increased aPTT,remained significantly higher than control,significantly increased anticoagulation compared to control in both PT and aPTT,900 ± 690 nM,~100 % relaxation,at least ten-fold increased potency,130 ± 90 nM,1000 ± 540 nM,reversed by NO-DMA,complete reversal of the memory deficit,significantly improved memory,3.9 ± 1.3 nM,24.4 ± 9.6 nM,,
"Oc1ccc(-c2sc3cc(O)ccc3c2Oc2ccc(OCCN3CCCCC3)cc2)cc1 [DMA, desmethylarzoxifene]",greater than twofold elevation,greater than twofold elevation,,,showed a clear trend,significantly increased aPTT,decreased to that of control samples,did not persist in the presence of NOS blockade,,~100 % relaxation,,,,,complete reversal of the memory deficit,not influenced by treatment with DMA,0.1 ± 0.1 nM,9.6 ± 1.9 nM,3500 ± 2500 nM,significant decrease in the efficacy
